Reference: patent publication US20250003989A1, “METHODS FOR TAUOPATHY DIAGNOSIS AND TREATMENT” (The Children`s Medical Center Corporation, priority 2021, published 2025)

System: naïve Tau
Experiment: In vitro second generation seeding without heparin, ThT assay
Details: equimolar effective concentration of heparin as contained in the catalytic amount of 2b seed
Description: Seeds were generated following the procedure described above at 50 μM protein concentration. The sample was vigorously pipetted to evenly disperse fibrils, and was added at a 2.5 mol % (1.25 μM protein concentration) to a 50 μM sample of new protein. Aggregation was followed with ThioflavinT assays. Thioflavin T (ThT) assays for Beta-sheet content were conducted with 50 μM protein content, and […] ThT in a 384-well Corning plate. A BioTek synergy2 plate reader was used with temperature control set at 37° C.

Chain of naïve Tau (as listed by the source): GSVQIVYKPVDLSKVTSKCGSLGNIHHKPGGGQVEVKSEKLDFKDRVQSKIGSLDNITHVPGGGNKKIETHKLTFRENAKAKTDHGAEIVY

heparin
ThT fluorescence, heparin-only control: no detectable ThT fluorescence
